Laboratory results as given in patent US8236339B2, “Therapeutic delivery of carbon monoxide” (priority 2001, dated 2012).
Read-outs that look alike come from different tables or passages of the source.

Key:
[1] = test system: deoxymyoglobin (deoxy-Mb); assay: Light-induced CO release diffusing through a membrane into myoglobin solution; assay type: biochemical, horse; conditions: for MbCO formation upon illumination: carbonyl solution exposed to cold light, gas diffusing through membrane
Experimental: Therefore release of CO was induced by exposing these metal carbonyl complexes to a cold light source and allowing the gas to diffuse through a membrane before reacting with myoglobin as shown in FIG. 1.
Five hundred microliters of iron pentacarbonyl ([Fe(CO)5], 99.9%) or 1 ml of dimanganese decacarbonyl ([Mn2(CO)10], 13 mM in DMSO) (see also chemical structure) were placed as carbonyl solution 2 in a plastic tube 1. A cell culture insert 3 (Costar) was sealed on top in order to create two separate chambers with a 0.6 cm air space between the solution 2 and an insert membrane 6 (Anapore™ 0.4 μm). 1.5 ml of deoxy-Mb solution (66 μM) was placed in the insert which was covered with Parafilm™ 5. The carbonyl solution was then exposed to cold light from a source 7 to stimulate CO release, allowing the gas to diffuse through the membrane 6 into the myoglobin solution 4. Aliquots of the myoglobin solution 4 were taken at different times and the conversion of deoxy-Mb to MbCO measured spectrophotometrically.

[2] = test system: deoxymyoglobin (deoxy-Mb); assay: Myoglobin assay: conversion of deoxy-Mb to MbCO on direct addition of metal carbonyl; assay type: biochemical, horse; conditions: direct addition to myoglobin solution (66 μM), no light
Experimental: The release of CO from metal carbonyl complexes was assessed spectrophotometrically by measuring the conversion of deoxymyoglobin (deoxy-Mb) to carbonmonoxy myoglobin (MbCO). MbCO has a distinctive absorption spectrum between 500 and 600 nm, and changes at 540 nm were used to quantify the amount of CO liberated. Myoglobin solutions (66 μM final concentration) were prepared freshly by dissolving the protein in 0.04 M phosphate buffer (pH 6.8). Sodium dithionite (0.1%) was added to convert myoglobin to deoxy-Mb prior to each reading. All the spectra were measured using a Helios a spectrophotometer.
Various metal carbonyl complexes were tested for their ability to elicit MbCO formation when added directly to a deoxy-Mb solution. To different extents, [Ru(CO)3Cl2]2, [Ru(CO)2(DMSO)2Cl2], [Ru(CO)3Cl2(cytosine)] and […] all released CO when added directly to the Mb solution.
The metal carbonyl complex was solubilized in DMSO (9.7 mM stock solution), aliquots of 2 to 32 μl were added directly to 1 ml of deoxy-Mb solutions (66 μM) and absorption spectrum determined immediately after mixing the samples by inversion.

[3] = test system: Rat vascular smooth muscle cells; assay: Cell viability of vascular smooth muscle cells (colorimetric assay); assay type: cell-based; conditions: 0-100 μM, 24 h in complete medium
Experimental: Rat vascular smooth muscle cells were obtained from the Coriell Cell Repository (Camden, N.J., USA) and grown in Dulbecco's […] (MEM) supplemented with 20% foetal calf serum, 2×MEM vitamins, 2×MEM non-essential and essential amino acids, penicillin (100 units/ml) and streptomycin (0.1 mg/ml). Confluent cells were treated with different concentrations of metal carbonyl (introduced as DMSO solution—see section B) for various times and cell viability was assessed using a colorimetric assay kit from Promega (Madison, Wis., USA) as previously described (47) after 3 or 24 h incubation, or after 3 h exposure to the agents followed by 21 h incubation in complete media. Results are expressed as the mean±s.e.m. of 6 independent experiments and differences were considered statistically significant at P<0.05 (*).

isolated rat hearts = conditions: L-NAME 25 μM perfusion
Experimental: Langendorff heart preparations were performed using male Lewis rats (300-350 g) as previously described by our group (35). […] (pH 7.4). Coronary perfusion pressure (CPP), a parameter indicative of coronary vessel contractility, was continuously measured by a pressure transducer connected to the aortic cannula and data analyzed with an Acknowledge software (BIOPAC System Inc.).
Hearts removed either from control rats (vehicle-treated) or from animals that were pre-treated with the heme oxygenase-1 inducer hemin (75 μmol/kg, i.p.) the day before, were initially equilibrated for 20 min on the Langendorff apparatus and then perfused with L-NAME (25 μM final concentration) to elicit vasoconstriction. The extent of CPP increase by L-NAME was also monitored over time in hemin-treated animals that received a heme oxygenase inhibitor (SnPPIX, 40 μmol/kg) 1 h prior to heart excision and in control hearts that were perfused with buffer supplemented with [Mn2(CO)10] (13 μM final concentration). Since [Mn2(CO)10] releases CO only by photodissociation, Krebs buffer containing [Mn2(CO)10] was exposed to a cold light source immediately before entering the aortic cannula.

[4] = L-NAME-induced increase in mean arterial pressure in anaesthetised Lewis rats; assay type: in vivo, rat; conditions: L-NAME 30 μmol/kg i.v.; [Ru(CO)3Cl2]2 60 μmol/kg i.v. 1 h before; hemin 75 μmol/kg i.p. 24 h before; SnPPIX 40 μmol/kg i.p.
Experimental: Lewis rats (280-350 g) were anaesthetised by intramuscular injection of 1 ml/kg Hypnorm (fentanyl 0.315 mg/ml and fluanisone 10 mg/ml) followed 5 min later by an intraperitoneal injection of 5 mg/kg diazepam. Specially designed femoral artery and venous catheters were then surgically implanted as previously described (40). The arterial cannula was connected to a Grass pressure transducer and blood pressure monitored continuously using a polygraph recorder. Experiments were conducted on anaesthetized animals and recordings were made within 30 min of the surgical procedure.
Control rats (vehicle-treated) and animals that were pre-treated with hemin (75 μmol/kg, i.p) 24 h prior to blood pressure monitoring were then administered with an intravenous injection of 30 μmol/Kg L-NAME to elicit an increase in mean arterial pressure. The extent of blood pressure increase by L-NAME was also monitored over time in hemin-treated animals that received SnPPIX (40 μmol/kg, i.p.) and in control rats previously injected with [Ru(CO)3Cl2]2 (60 μmol/kg, i.v.). In these two groups, SnPPIX or [Ru(CO)3Cl2]2 were administered to animals 1 h prior to L-NAME injection.

HO-1 = assay: Expression of heme oxygenase-1 in rat hearts (immunostaining, Northern blot); assay type: in vivo; conditions: 24 h after hemin treatment, i.p.
Experimental: For immunohistochemistry analysis, sections of heart muscles (5 μm thickness) were treated with 0.3% H2O2 in methanol to block endogenous peroxidase activity. Immunohistochemical staining was performed using rabbit polyclonal antibody against HO-1 (1:1000 dilution) as previously described (23). The presence of HO-1 was indicated by the development of a brown color. For Northern blot analysis, cardiac tissue was ground in a mortar under liquid nitrogen and suspended in guanidinium thiocyanate lysis buffer, Total RNA was then extracted using a modification of the method described by Chomczynski and Sacchi (49). RNA was run on a 1.3% denaturing agarose gel containing 2.2 M formaldehyde and transferred onto a nylon membrane overnight. The membrane was hybridized using [α-^32P]dCTP-labelled cDNA probes to rat HO-1 and GAPDH genes and bands analyzed using a densitometer as previously described (23, 50).
Hearts were removed from Lewis rats 24 h after treatment with vehicle (control) or hemin ([…], i.p.) and immunostaining for HO-1 was assessed. For Northern blot analysis, rats were treated with hemin (75 μmol/kg, i.p.) and hearts removed at different time points to assess HO-1 mRNA levels (+ve, positive control).

Structure (SMILES)	MbCO formation upon illumination [1]	MbCO formation / CO release when added directly to deoxy-Mb solution [2]	time to complete saturation of the myoglobin solution ([1]; 13 μmol/ml, continuous exposure to light)	cytotoxicity on smooth muscle cells [3]	effect on L-NAME-mediated vasoconstriction / rise in CPP (isolated rat hearts; listed as (Mn2(CO)10))	effect on L-NAME-mediated vasoconstriction / rise in CPP (isolated rat hearts; listed as [Mn2(CO10])	effect on L-NAME-induced increase in blood pressure [4]	effect on L-NAME-mediated vasoconstriction / rise in CPP (isolated rat hearts)	HO-1 protein and mRNA expression in hearts (HO-1)
[C-]#[O+].[C-]#[O+].[C-]#[O+].[C-]#[O+].[C-]#[O+].[Fe] [[Fe(CO)5], iron pentacarbonyl]	gradual increase in MbCO formation observed over time	did not result in any appreciable formation of carbonmonoxy myoglobin							
[C-]#[O+].[C-]#[O+].[C-]#[O+].[C-]#[O+].[C-]#[O+].[C-]#[O+].[C-]#[O+].[C-]#[O+].[C-]#[O+].[C-]#[O+].[Mn].[Mn] [[Mn2(CO)10], dimanganese decacarbonyl]	gradual increase in MbCO formation observed over time	did not result in any appreciable formation of carbonmonoxy myoglobin	approximately 40 min	no major cytotoxicity	unaffected	significantly delayed vasoconstriction and maintained CPP at much lower levels at the end of perfusion			
C=CC1=C(C)c2cc3[n-]c(cc4[n-]c(cc5nc(cc1n2)C(C)=C5C=C)c(C)c4CCC(=O)O)c(CCC(=O)O)c3C.[Cl-].[Fe+3] [hemin, ferriprotoporphyrin IX chloride]							significant suppression	markedly attenuated	highly expressed
